Measurements published in the supplement of paper PMC11208160.
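Note: IS621 recombinase and bridge RNA in Escherichia coli cells.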

Test: recombinant barcode read abundance after kanamycin selection (control-corrected) (log10(CPM+1)); higher = more efficient recombination; sequences stand for … in AGTGCAGAGAAAATCGGCCAGTTTTCTCTGCCTGCAGTCCGCATGCCGT…AGATTTATGCAGCGGACTGCCTTTCTCCCAAAGTGATAAACCGGACAGTATCATGGACCGGTTTTCCCGGTAATCCGTATTTGCAAGGTTGGTTTCACT; site = the 11-nt target
Summary of the method: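 For this pooled screen, each oligo contained a promoter, a target, a barcode and the J23119-driven first 104 bases of the bridge RNA. Gibson cloning placed it into a vector supplying the remaining 73 bp and a T7-inducible recombinase, and the pool was co-electroporated into E. coli with a donor plasmid. Recombination efficiency is derived from barcode counts per million at recombinant junctions after averaging and control correction, and is expressed on a log scale as log10(CPM+1), with selection on chloramphenicol/ampicillin/kanamycin plus 0.1 mM IPTG against a chloramphenicol/ampicillin LB agar control.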
For “GCCAACCCTTGGGTTCTAACCTGTTGCTT (site GCCAACCCTAT)”, the “recombinant barcode read abundance (log10)” value was 0.39.
With “GCCATCACTTGGGTTCTAACCTGTTGCCT (site GCCATAACTAG)” the “recombinant barcode read abundance (log10)” value was 0.00743.
For “GCCATCACTTGGGTTCTAACCTGTTGCCT (site GCCATCACTAG)”, the “recombinant barcode read abundance (log10)” value was 0.112.
With “GCCATCACTTGGGTTCTAACCTGTTGCCT (site GCCATGACTAG)” the “recombinant barcode read abundance (log10)” value was 0.152.
In the case of “GCCATCACTTGGGTTCTAACCTGTTGCCT (site GCCATTACTAG)”, the “recombinant barcode read abundance (log10)” value is reported as 0.12.
With “GCCATCTCTTGGGTTCTAACCTGTTGCCT (site GCCATCTCTAG)” the “recombinant barcode read abundance (log10)” value was 0.0476.
With “GCCATCTCTTGGGTTCTAACCTGTTGCCT (site GCCGTCTCTAG)” the “recombinant barcode read abundance (log10)” value was 0.0992.
With “GCCATGTCTTGGGTTCTAACCTGTTGCCT (site GCCATGTCTAG)” the “recombinant barcode read abundance (log10)” value was 0.502.
With “GCCATGTCTTGGGTTCTAACCTGTTGCCT (site GTCATGTCTAG)” the “recombinant barcode read abundance (log10)” value was 0.0158.
For “GCCCATCCTTGGGTTCTAACCTGTTGCTA (site GCCCATCCTTA)”, the “recombinant barcode read abundance (log10)” value was 1.36.
In the case of “GCCCATCCTTGGGTTCTAACCTGTTGCTA (site TAGTGAGCTCG)”, the “recombinant barcode read abundance (log10)” value is reported as 0.222.
With “GCCCCATCTTGGGTTCTAACCTGTTGCCT (site GCCCAATCTAG)” the “recombinant barcode read abundance (log10)” value was 0.00703.
In the case of “GCCCCATCTTGGGTTCTAACCTGTTGCCT (site GCCCCATCTAG)”, the “recombinant barcode read abundance (log10)” value is reported as 0.601.
For “GCCCCATCTTGGGTTCTAACCTGTTGCCT (site GCCCGATCTAG)”, the “recombinant barcode read abundance (log10)” value was 0.37.
With “GCCCCATCTTGGGTTCTAACCTGTTGCCT (site GCCCTATCTAG)” the “recombinant barcode read abundance (log10)” value was 0.384.
In the case of “GCCCCGCCTTGGGTTCTAACCTGTTGCAG (site GCCACGCCTCT)”, the “recombinant barcode read abundance (log10)” value is reported as 0.319.
For “GCCCCGCCTTGGGTTCTAACCTGTTGCAG (site GCCCCGCCTCT)”, the “recombinant barcode read abundance (log10)” value was 1.02.
With “GCCCCGCCTTGGGTTCTAACCTGTTGCAG (site GCCGCGCCTCT)” the “recombinant barcode read abundance (log10)” value was 0.00897.
With “GCCCCGCCTTGGGTTCTAACCTGTTGCAG (site GCCTCGCCTCT)” the “recombinant barcode read abundance (log10)” value was 0.0556.
In the case of “GCCCGGGCTTGGGTTCTAACCTGTTGCCG (site GCCAGGGCTCG)”, the “recombinant barcode read abundance (log10)” value is reported as 0.144.
In the case of “GCCCGGGCTTGGGTTCTAACCTGTTGCCG (site GCCCGGGCTCG)”, the “recombinant barcode read abundance (log10)” value is reported as 0.309.
For “GCCCGGGCTTGGGTTCTAACCTGTTGCCG (site GCCGGGGCTCG)”, the “recombinant barcode read abundance (log10)” value was 0.0496.
For “GCCCGGGCTTGGGTTCTAACCTGTTGCCG (site GCCTGGGCTCG)”, the “recombinant barcode read abundance (log10)” value was 0.0679.
For “GCCCGTGCTTGGGTTCTAACCTGTTGCCT (site GCACGTGCTAG)”, the “recombinant barcode read abundance (log10)” value was 0.377.
In the case of “GCCCGTGCTTGGGTTCTAACCTGTTGCCT (site GCCCGTGCTAG)”, the “recombinant barcode read abundance (log10)” value is reported as 1.31.
With “GCCCGTGCTTGGGTTCTAACCTGTTGCCT (site GCGCGTGCTAG)” the “recombinant barcode read abundance (log10)” value was 0.177.
With “GCCCGTGCTTGGGTTCTAACCTGTTGCCT (site GCTCGTGCTAG)” the “recombinant barcode read abundance (log10)” value was 0.0122.
For “GCCCTGCCTTGGGTTCTAACCTGTTGCCT (site GCACTGCCTAG)”, the “recombinant barcode read abundance (log10)” value was 0.705.
In the case of “GCCCTGCCTTGGGTTCTAACCTGTTGCCT (site GCCCTGCCTAG)”, the “recombinant barcode read abundance (log10)” value is reported as 1.43.
In the case of “GCCCTTGCTTGGGTTCTAACCTGTTGCCT (site GAACTTGCTAG)”, the “recombinant barcode read abundance (log10)” value is reported as 0.114.
In the case of “GCCCTTGCTTGGGTTCTAACCTGTTGCCT (site GCCCTTGCTAG)”, the “recombinant barcode read abundance (log10)” value is reported as 1.79.
In the case of “GCCGACACTTGGGTTCTAACCTGTTGCCT (site GCCGAAACTAG)”, the “recombinant barcode read abundance (log10)” value is reported as 0.0569.
For “GCCGACACTTGGGTTCTAACCTGTTGCCT (site GCCGACACTAG)”, the “recombinant barcode read abundance (log10)” value was 0.13.
For “GCCGACACTTGGGTTCTAACCTGTTGCCT (site GCCGAGACTAG)”, the “recombinant barcode read abundance (log10)” value was 0.284.
For “GCCGACACTTGGGTTCTAACCTGTTGCCT (site GCCGATACTAG)”, the “recombinant barcode read abundance (log10)” value was 0.17.
For “GCCGAGTCTTGGGTTCTAACCTGTTGCTC (site GCCGAGTCTAA)”, the “recombinant barcode read abundance (log10)” value was 0.191.
In the case of “GCCGAGTCTTGGGTTCTAACCTGTTGCTC (site GCCGAGTCTCA)”, the “recombinant barcode read abundance (log10)” value is reported as 0.0833.
In the case of “GCCGAGTCTTGGGTTCTAACCTGTTGCTC (site GCCGAGTCTGA)”, the “recombinant barcode read abundance (log10)” value is reported as 1.2.
With “GCCGAGTCTTGGGTTCTAACCTGTTGCTC (site GCCGAGTCTTA)” the “recombinant barcode read abundance (log10)” value was 0.371.
For “GCCGATCCTTGGGTTCTAACCTGTTGCCT (site GACGATCCTAG)”, the “recombinant barcode read abundance (log10)” value was 0.332.
For “GCCGATCCTTGGGTTCTAACCTGTTGCCT (site GCCGATCCTAG)”, the “recombinant barcode read abundance (log10)” value was 0.12.
With “GCCGATCCTTGGGTTCTAACCTGTTGCCT (site GGCGATCCTAG)” the “recombinant barcode read abundance (log10)” value was 0.205.
With “GCCGATCCTTGGGTTCTAACCTGTTGCCT (site GTCGATCCTAG)” the “recombinant barcode read abundance (log10)” value was 0.0291.
With “GCCGCGCCTTGGGTTCTAACCTGTTGCAG (site GCCACGCCTCT)” the “recombinant barcode read abundance (log10)” value was 0.0533.
For “GCCGCGCCTTGGGTTCTAACCTGTTGCAG (site GCCCCGCCTCT)”, the “recombinant barcode read abundance (log10)” value was 0.271.
In the case of “GCCGCGCCTTGGGTTCTAACCTGTTGCAG (site GCCGCGCCTCT)”, the “recombinant barcode read abundance (log10)” value is reported as 0.116.
With “GCCGCGCCTTGGGTTCTAACCTGTTGCAG (site GCCTCGCCTCT)” the “recombinant barcode read abundance (log10)” value was 0.13.
For “GCCGCTCCTTGGGTTCTAACCTGTTGCCT (site GCCGCTCCTAG)”, the “recombinant barcode read abundance (log10)” value was 0.163.
In the case of “GCCGCTCCTTGGGTTCTAACCTGTTGCCT (site GCGGTTCCTAG)”, the “recombinant barcode read abundance (log10)” value is reported as 0.098.
In the case of “GCCTATGCTTGGGTTCTAACCTGTTGCCT (site GACTATGCTAG)”, the “recombinant barcode read abundance (log10)” value is reported as 0.115.
In the case of “GCCTATGCTTGGGTTCTAACCTGTTGCCT (site GCCTATGCTAG)”, the “recombinant barcode read abundance (log10)” value is reported as 0.852.
In the case of “GCCTATGCTTGGGTTCTAACCTGTTGCCT (site GGCTATGCTAG)”, the “recombinant barcode read abundance (log10)” value is reported as 0.0448.
With “GCCTATGCTTGGGTTCTAACCTGTTGCCT (site GTCTATGCTAG)” the “recombinant barcode read abundance (log10)” value was 0.0718.
For “GCCTCTTCTTGGGTTCTAACCTGTTGCCT (site GCCTCTTCTAG)”, the “recombinant barcode read abundance (log10)” value was 0.426.
For “GCCTCTTCTTGGGTTCTAACCTGTTGCCT (site GTCTCTACTAG)”, the “recombinant barcode read abundance (log10)” value was 0.0556.
For “GCCTGGTCTTGGGTTCTAACCTGTTGCCT (site GCCTGGTCTAG)”, the “recombinant barcode read abundance (log10)” value was 1.01.
With “GCCTGGTCTTGGGTTCTAACCTGTTGCCT (site TCCTCGTCTAG)” the “recombinant barcode read abundance (log10)” value was 0.122.
With “GCGACGCCTTGGGTTCTAACCTGTTGCCT (site ACGAAGCCTAG)” the “recombinant barcode read abundance (log10)” value was 0.0187.
For “GCGACGCCTTGGGTTCTAACCTGTTGCCT (site GCGACGCCTAG)”, the “recombinant barcode read abundance (log10)” value was 1.26.
With “GCGACTCCTTGGGTTCTAACCTGTTGCCT (site GCGACTCCTAA)” the “recombinant barcode read abundance (log10)” value was 0.215.
For “GCGACTCCTTGGGTTCTAACCTGTTGCCT (site GCGACTCCTAG)”, the “recombinant barcode read abundance (log10)” value was 0.699.
With “GCGATCCCTTGGGTTCTAACCTGTTGCTT (site CATGAGACTCC)” the “recombinant barcode read abundance (log10)” value was 0.0103.
With “GCGATCCCTTGGGTTCTAACCTGTTGCTT (site GCGATCCCTAA)” the “recombinant barcode read abundance (log10)” value was 0.798.
For “GCGCACCCTTGGGTTCTAACCTGTTGCAG (site CTGCACCCTCT)”, the “recombinant barcode read abundance (log10)” value was 0.0518.
For “GCGCACCCTTGGGTTCTAACCTGTTGCAG (site GCGCACCCTCT)”, the “recombinant barcode read abundance (log10)” value was 1.15.
In the case of “GCGCATGCTTGGGTTCTAACCTGTTGCCT (site GCGCATGCTAG)”, the “recombinant barcode read abundance (log10)” value is reported as 0.788.
For “GCGCATGCTTGGGTTCTAACCTGTTGCCT (site GTGCCTGCTAG)”, the “recombinant barcode read abundance (log10)” value was 0.41.
For “GCGCCCTCTTGGGTTCTAACCTGTTGCCT (site ACGCCCTCTAG)”, the “recombinant barcode read abundance (log10)” value was 0.0862.
With “GCGCCCTCTTGGGTTCTAACCTGTTGCCT (site GCGCCCTCTAG)” the “recombinant barcode read abundance (log10)” value was 0.7.
For “GCGCGAACTTGGGTTCTAACCTGTTGCCT (site GCACGAACTAG)”, the “recombinant barcode read abundance (log10)” value was 0.733.
For “GCGCGAACTTGGGTTCTAACCTGTTGCCT (site GCCCGAACTAG)”, the “recombinant barcode read abundance (log10)” value was 0.047.
With “GCGCGAACTTGGGTTCTAACCTGTTGCCT (site GCGCGAACTAG)” the “recombinant barcode read abundance (log10)” value was 0.608.
For “GCGCGAACTTGGGTTCTAACCTGTTGCCT (site GCTCGAACTAG)”, the “recombinant barcode read abundance (log10)” value was 0.125.
With “GCGGAATCTTGGGTTCTAACCTGTTGCCT (site GCGGAATCTAG)” the “recombinant barcode read abundance (log10)” value was 1.28.
For “GCGGAATCTTGGGTTCTAACCTGTTGCCT (site TCGGAATCTAG)”, the “recombinant barcode read abundance (log10)” value was 0.469.
With “GCGGACGCTTGGGTTCTAACCTGTTGCCT (site CCGGACCCTAG)” the “recombinant barcode read abundance (log10)” value was 0.0428.
With “GCGGACGCTTGGGTTCTAACCTGTTGCCT (site GCGGACGCTAG)” the “recombinant barcode read abundance (log10)” value was 1.72.
